Experimental findings from patent publication US8536202B2, “Triazole-substituted anthranilamides as pesticides” (Bayer Cropscience AG, priority 2010, dated 2013) are described below.

Series [1] has as its system green peach aphid (Myzus persicae). As to the kind of experiment: Myzus test (MYZUPE spray treatment), Use Example 8, comparison with prior art. The series is classed as in vivo. The conditions noted are these: 100 g/ha, 6 d. How it is done: (§1) Solvents: 78.0 parts by weight of acetone • • 1.5 parts by weight of dimethylformamide
(§2) Emulsifier: 0.5 part by weight of alkylaryl polyglycol ether
An appropriate preparation of active compound is prepared by mixing 1 part by weight of active compound with the stated amounts of solvents and emulsifier and diluting the concentrate with emulsifier-containing water to the desired concentration.
Leaf discs of Chinese cabbage (Brassica pekinensis) infested by all stages of the green peach aphid (Myzus persicae) are sprayed with a preparation of active compound at the desired concentration. After the desired time, the activity in % is ascertained. Here, 100% means that all of the aphids have been killed; 0% means that no aphids have been killed.

The subject of series [2] is two-spotted spider mite (Tetranychus urticae). As to the kind of experiment: Tetranychus test, OP-resistant (TETRUR spray treatment). In kind it is in vivo. The conditions noted are these: 100 g/ha, after 6 days. How it is done:
as §1, §2
An appropriate preparation of active compound is prepared by mixing 1 part by weight of active compound with the stated amounts of solvent and emulsifier and diluting the concentrate with emulsifier-containing water to the desired concentration. Leaf discs of French bean (Phaseolus vulgaris) infested by all stages of the two-spotted spider mite (Tetranychus urticae) are sprayed with a preparation of active compound at the desired concentration.
After 6 days, the activity in % is ascertained. Here, 100% means that all of the spider mites have been killed; 0% means that no spider mites have been killed.

Series [3] has as its system green peach aphid (Myzus persicae). As to the kind of experiment: Myzus test (MYZUPE spray treatment), Use Example 4. Conditions: 144 h, 100 g/ha, after 6 days, read-out: activity in %. In kind it is in vivo. In a few lines: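 Compound was formulated in acetone/dimethylformamide with alkylaryl polyglycol ether emulsifier and diluted in emulsifier-containing water. It was sprayed onto Chinese cabbage leaf discs infested with all stages of Myzus persicae. Mortality (%) was scored after 6 days, where 100% means all aphids killed.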

A short description of series [4]: log P determination by HPLC on reversed-phase columns (EEC Directive 79/831 Annex V.A8). The series is classed as physicochemical. Conditions: pH 2.7. The method, boiled down: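 Calibration used unbranched alkan-2-ones of 3 to 16 carbons with known log P, values interpolated linearly from retention times between neighbouring standards. Acidic-range LC-MS run at pH 2.7, eluents aqueous and acetonitrile formic acid 0.1%, linear gradient 10% to 95% acetonitrile.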

The test system of series [5] is caterpillars of the armyworm (Spodoptera frugiperda). In words: Spodoptera frugiperda test (SPODFR spray treatment). The series is classed as in vivo. The conditions noted are these: 168 h, 100 g/ha, after 7 days, read-out: activity in %. The method, boiled down:
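Percent caterpillar mortality read 7 days after infestation (0% none killed, 100% all killed). Treatment was a spray of the acetone/DMF/emulsifier formulation, water-diluted to test concentration, onto Zea mays leaf discs, allowed to dry before larvae were added.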

In series [6] the test system is larvae of the mustard beetle (Phaedon cochleariae). In words: Phaedon test (PHAECO spray treatment). In kind it is in vivo. The conditions noted are these: 168 h, 100 g/ha, after 7 days, read-out: activity in %. The method, boiled down: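 Mortality of mustard beetle larvae, expressed as percent killed (100% all, 0% none), assessed 7 days after spraying. Spray liquor made from compound in acetone plus dimethylformamide with alkylaryl polyglycol ether, diluted in emulsifier-containing water to the desired concentration.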

In the case of `Cc1cc(Cl)cc(C(N)=O)c1NC(=O)c1cc(Cn2nnc(C(F)(F)C(F)(F)F)n2)nn1-c1ncccc1Cl` [reference compound], the “% Activity” value in series [1] is given as 80 6 d %.
The same measure, in the same setting: as for `Cc1cc(Cl)cc(C(N)=O)c1NC(=O)c1cc(Cn2cc(C(F)(F)C(F)(F)F)nn2)nn1-c1ncccc1Cl` [drawing 449], the figure is 100 6 d %.
For the compound `Cc1cc(C#N)cc(C(=O)NC(C)(C)C)c1NC(=O)c1cc(Cn2cc(C3CC3)nn2)nn1-c1ncccc1Cl` [Example 50], the activity in % in series [2] amounted to 80%. In addition, the pest or weed control at 100 g/ha in series [3] stood at 90%; in series [5], 83%; in series [6], 100%. In series [4], this compound showed a chromatographic logP of 2.57.

The chromatographic logP is a lipophilicity value derived from retention on a column.
